Where a name gives a salt, the structure may show the parent alone.
Target: T1, MMP9 (Gelatinase-B) (Homo sapiens, UniProt P14780)
T1 construct: endogenous in cells; host or cells: THP1 human monocytic leukemia cells, TPA-stimulated; purified from culture medium
Assay: Assay of MMP9 (fluorogenic peptide)
Assay type: biochemical
Settings: mean ± SEM of three independent experiments
Procedure: MMP9 is prepared form the culture medium of THP1 human monocytic leukemia cells treated with TPA. THP1 cells are maintained in a culture of DMEM/F-12 with 10% FCS and stimulated to produce pro-MMP9 with TPA (1 nM) in serum-free medium for 48 h. All purification procedures are carried out at 4° C. The 1 liters of culture medium is concentrated to 100 ml by Centricon (Amicon) and applied to a column (1×8 cm) of gelatin-sepharose (Pharmacia) equilibrated with 50 mM Tris-Cl (pH=8.0), 300 mM NaCl. The fraction containing pro-MMP-9 is eluted with 10% DMSO in 50 mM Tris-Cl (pH=8.0), 300 mM NaCl, then dialyzed against 50 mM Tris-Cl (pH 7.5), 150 mM NaCl. The fraction is concentrated by Centricon and subjected to column chromatography of Sephadex G200 (2×20 cm) equilibrated with 50 mM Tris-Cl (pH=7.5) containing 150 mM NaCl. The purified Pro-MMP9 is stored at −80° C. as a stock and the necessary amount of pro-form is used for activation. Pro-MMP9 is activated with 1 mM aminophenyl mercury acetate (APMA, ICN Pharmaceuticals) in 50 mM Tris-Cl (pH=7.5) containing 150 mM NaCl, 10 mM CaCl2 and 0.05% Brij-35 (MMP Assay Buffer) for 18 h at 37° C., and the APMA is removed by extensive dialysis against MMP Assay Buffer. […]
The activated MMP-9 (82 kDa) is then used to screen compounds. […] The increase of fluorescence is monitored at 460 nm with excitation at 355 nm. […]

T1 sequence (P14780 107-707 limits assumed): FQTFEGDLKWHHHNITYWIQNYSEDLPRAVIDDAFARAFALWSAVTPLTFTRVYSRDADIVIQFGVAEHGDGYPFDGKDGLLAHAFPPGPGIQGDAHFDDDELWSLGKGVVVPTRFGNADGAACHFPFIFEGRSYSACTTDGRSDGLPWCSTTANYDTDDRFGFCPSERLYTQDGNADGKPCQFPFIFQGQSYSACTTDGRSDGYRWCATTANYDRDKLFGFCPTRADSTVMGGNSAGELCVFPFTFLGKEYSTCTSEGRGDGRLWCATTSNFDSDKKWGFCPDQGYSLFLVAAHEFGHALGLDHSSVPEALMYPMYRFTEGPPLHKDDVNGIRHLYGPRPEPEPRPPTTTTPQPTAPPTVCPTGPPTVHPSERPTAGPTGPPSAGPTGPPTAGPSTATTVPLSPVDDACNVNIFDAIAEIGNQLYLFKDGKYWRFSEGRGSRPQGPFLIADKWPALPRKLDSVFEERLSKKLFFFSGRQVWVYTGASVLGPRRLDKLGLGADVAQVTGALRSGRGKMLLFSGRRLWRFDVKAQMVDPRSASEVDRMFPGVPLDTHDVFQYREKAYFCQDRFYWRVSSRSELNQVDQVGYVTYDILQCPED

SMILES: CN(C)c1ccc(CN(CC(=O)NO)S(=O)(=O)c2ccc(OCC3CC3)cc2)cc1 [Example 2, 2-[(4-Cyclopropylmethoxy-benzenesulfonyl)-(4-dimethylamino-benzyl-amino]-N-hydroxy-acetamide HCl salt]
- IC50: 2.57 ± 0.27 nM

From patent US7659293B2, “α-Amino-N-hydroxy-acetamide derivatives” (Novartis AG, priority 2001, dated 2010)
